According to ChEMBL document CHEMBL4196241, “Auranthine, a Benzodiazepinone from Penicillium aurantiogriseum: Refined Structure, Absolute Configuration, and Cytotoxicity” (J Nat Prod, 2018):
Calls of active or inactive are those of the source. The rule behind the calls is not given here.

Assays:
Homo sapiens [1] = species: Homo sapiens; test: Cytotoxicity against human IHKE cells assessed as reduction in cell viability up to 100 uM by CCK8 assay; format: functional, cell-based
HepG2 [2] = test: Cytotoxicity against human HepG2 cells assessed as reduction in cell viability up to 100 uM by CCK8 assay; format: functional, cell-based
[3] = (§1) Cytotoxicity against human IHKE cells assessed as reduction in cell viability by CCK8 assay; format: functional, cell-based
HepG2 [4] = test: Cytotoxicity against human HepG2 cells assessed as reduction in cell viability by CCK8 assay relative to control; format: functional, cell-based
HepG2 [5] = test: Cytotoxicity against human HepG2 cells assessed as reduction in cell viability at 100 uM by CCK8 assay relative to control; format: functional
Homo sapiens [6] = species: Homo sapiens; test: as §1; format: functional, cell-based

Structure (SMILES)	Activity (Homo sapiens [1])	Activity (HepG2 [2])	IC50 [3]	Activity (HepG2 [4])	Activity (HepG2 [5])	Activity (Homo sapiens [6])
N#CCC[C@@H]1NC(=O)c2ccccc2-n2c1nc1ccccc1c2=O	inactive	inactive				
C=CC(C)(C)c1[nH]cnc1/C=C1\NC(=O)[C@H](C(C)C)NC1=O			25 µM	Dose-dependent effect	<=56%	
N#CCC[C@@H]1NC(=O)c2ccccc2N2C(=O)c3ccccc3N[C@H]12	inactive	inactive				
CN1C(=O)c2ccccc2N2C(=O)c3ccccc3N[C@@H]2[C@@H]1CCC#N		inactive				Dose-dependent effect
